Laboratory results reported in ChEMBL document CHEMBL1201862, “PubChem BioAssay data set” (2004).
Calls of active or inactive are those of the source.

Experiments:
[1] = target: T1, Aminopeptidase N (Plasmodium falciparum FcB1/Columbia, UniProt O96935); assay: P. falciparum M1AAP inhibitors, biochemical, fluorogenic H-Leu-NHMec substrate, 1536-well (AID 1445); parameters: species or system Plasmodium falciparum 3D7, 3D7
T1 sequence (O96935 whole entry): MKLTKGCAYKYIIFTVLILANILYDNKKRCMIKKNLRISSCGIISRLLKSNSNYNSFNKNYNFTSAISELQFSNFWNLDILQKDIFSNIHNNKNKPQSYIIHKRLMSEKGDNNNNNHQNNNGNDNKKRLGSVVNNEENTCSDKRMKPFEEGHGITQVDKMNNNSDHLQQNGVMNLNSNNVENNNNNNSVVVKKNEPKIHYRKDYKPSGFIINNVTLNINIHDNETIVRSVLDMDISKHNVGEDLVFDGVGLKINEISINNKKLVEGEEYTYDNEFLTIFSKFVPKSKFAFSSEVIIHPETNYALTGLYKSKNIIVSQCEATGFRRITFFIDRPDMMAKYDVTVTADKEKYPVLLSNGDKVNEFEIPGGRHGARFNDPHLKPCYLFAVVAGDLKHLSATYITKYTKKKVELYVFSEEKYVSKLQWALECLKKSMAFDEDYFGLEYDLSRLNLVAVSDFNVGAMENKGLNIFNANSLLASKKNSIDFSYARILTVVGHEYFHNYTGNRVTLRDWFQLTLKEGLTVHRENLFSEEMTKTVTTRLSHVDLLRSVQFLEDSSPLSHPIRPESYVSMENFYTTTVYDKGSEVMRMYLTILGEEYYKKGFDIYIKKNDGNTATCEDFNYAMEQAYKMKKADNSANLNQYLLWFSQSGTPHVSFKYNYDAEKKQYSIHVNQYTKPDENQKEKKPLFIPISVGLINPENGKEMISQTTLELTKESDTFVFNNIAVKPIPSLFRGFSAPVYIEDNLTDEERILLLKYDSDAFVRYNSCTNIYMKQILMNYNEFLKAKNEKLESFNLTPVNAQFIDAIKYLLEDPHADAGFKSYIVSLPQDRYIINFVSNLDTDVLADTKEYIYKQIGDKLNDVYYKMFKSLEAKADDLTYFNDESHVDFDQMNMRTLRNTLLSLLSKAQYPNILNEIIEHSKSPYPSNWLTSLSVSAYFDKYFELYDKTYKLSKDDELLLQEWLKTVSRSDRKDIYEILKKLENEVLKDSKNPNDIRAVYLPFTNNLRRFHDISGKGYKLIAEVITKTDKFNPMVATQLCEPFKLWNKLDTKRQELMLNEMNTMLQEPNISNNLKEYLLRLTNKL

[2] = tested on: Streptococcus sp. 'group A'; assay: growth inhibition of control SK(-) GAS strain, dose response, counter-screen for streptokinase expression inhibitor project, luminescence, kanamycin, BacTiterGlo, confirmation (AID 1900); assay type: functional, organism-based
[3] = target: Serine/threonine-protein phosphatase PP1-alpha catalytic subunit (Homo sapiens, UniProt P62136); assay: PP1 phosphatase inhibitors, dose response, biochemical, fluorescence (AID 2403);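 further: phosphatase turnover of OMFP into fluorescent 3-O-methylfluorescein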
Chain of Serine/threonine-protein phosphatase PP1-alpha catalytic subunit (P62136 whole entry): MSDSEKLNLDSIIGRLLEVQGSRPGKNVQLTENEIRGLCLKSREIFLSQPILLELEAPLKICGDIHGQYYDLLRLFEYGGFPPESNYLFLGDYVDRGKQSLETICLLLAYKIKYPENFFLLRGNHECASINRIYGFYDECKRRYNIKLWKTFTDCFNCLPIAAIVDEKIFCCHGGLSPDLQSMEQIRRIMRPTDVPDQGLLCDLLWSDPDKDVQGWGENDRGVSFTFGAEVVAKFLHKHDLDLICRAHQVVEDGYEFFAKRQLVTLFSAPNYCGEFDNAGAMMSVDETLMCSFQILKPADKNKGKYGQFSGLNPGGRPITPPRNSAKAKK

[4] = target: T2, Streptokinase A (Streptococcus pyogenes serotype M1, UniProt P10520); assay: S. pyogenes streptokinase expression inhibitors, potency, dose response, plasminogen activation absorbance, OD405 (AID 1914); assay type: functional, Streptococcus pyogenes M1 GAS;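 further: secreted streptokinase activity via plasminogen activation per viability signal from cell pellet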
T2 sequence (P10520 whole entry): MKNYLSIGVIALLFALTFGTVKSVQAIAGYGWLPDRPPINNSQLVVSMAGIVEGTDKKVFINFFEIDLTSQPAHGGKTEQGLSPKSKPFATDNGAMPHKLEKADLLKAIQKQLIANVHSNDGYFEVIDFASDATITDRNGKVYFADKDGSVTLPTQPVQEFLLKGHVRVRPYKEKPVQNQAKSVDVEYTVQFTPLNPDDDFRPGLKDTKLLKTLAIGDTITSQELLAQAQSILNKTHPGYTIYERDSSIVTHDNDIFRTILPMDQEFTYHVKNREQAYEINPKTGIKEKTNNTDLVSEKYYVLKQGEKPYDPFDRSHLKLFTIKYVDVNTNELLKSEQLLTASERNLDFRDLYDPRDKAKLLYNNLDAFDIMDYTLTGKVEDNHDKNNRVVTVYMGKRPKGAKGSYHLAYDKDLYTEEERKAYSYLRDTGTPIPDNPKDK

[5] = target: Serine/threonine-protein phosphatase (Homo sapiens, UniProt Q9BPW0); assay: Counterscreen for inhibitors of PP1: fluorescence-based biochemical high throughput dose response assay to identify inhibitors of Protein Phosphatase 5 (PP5). [Related pubchem assays: 2034 (Summary (PP5 inhibitors)), 1987 (PP5 inhibitors in singlate), 2235 (PP1 inhibitors in singlate)]
Chain of Serine/threonine-protein phosphatase (Q9BPW0 whole entry): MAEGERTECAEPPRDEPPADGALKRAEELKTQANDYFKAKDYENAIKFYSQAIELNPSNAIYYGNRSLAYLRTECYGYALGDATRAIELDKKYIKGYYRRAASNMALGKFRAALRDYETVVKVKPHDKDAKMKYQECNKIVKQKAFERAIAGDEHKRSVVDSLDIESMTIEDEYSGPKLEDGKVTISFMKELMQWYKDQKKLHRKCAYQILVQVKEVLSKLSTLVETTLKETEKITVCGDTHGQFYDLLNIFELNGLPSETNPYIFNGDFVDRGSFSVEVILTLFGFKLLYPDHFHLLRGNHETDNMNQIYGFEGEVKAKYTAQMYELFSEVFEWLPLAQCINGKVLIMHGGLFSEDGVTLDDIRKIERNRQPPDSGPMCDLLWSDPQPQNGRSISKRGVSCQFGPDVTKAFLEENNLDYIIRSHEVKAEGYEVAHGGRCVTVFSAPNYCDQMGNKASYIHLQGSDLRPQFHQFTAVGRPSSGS

[6] = target: Induced myeloid leukemia cell differentiation protein Mcl-1 (Homo sapiens, UniProt Q07820); assay type: functional
Chain of Induced myeloid leukemia cell differentiation protein Mcl-1 (Q07820 whole entry): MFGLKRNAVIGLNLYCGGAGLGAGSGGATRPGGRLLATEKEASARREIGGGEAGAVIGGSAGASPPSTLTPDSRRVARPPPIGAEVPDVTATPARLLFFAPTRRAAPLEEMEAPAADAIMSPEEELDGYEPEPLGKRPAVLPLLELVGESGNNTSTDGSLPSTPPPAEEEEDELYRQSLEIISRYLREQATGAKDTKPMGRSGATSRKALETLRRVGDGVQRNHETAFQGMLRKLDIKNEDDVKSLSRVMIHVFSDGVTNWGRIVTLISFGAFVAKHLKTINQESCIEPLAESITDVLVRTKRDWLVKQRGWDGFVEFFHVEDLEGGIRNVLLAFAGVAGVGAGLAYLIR

[7] = tested on: Streptococcus; assay: Group A Streptococcus viability loss, dose response, counter-screen for streptokinase expression inhibitor project, luminescence, BacTiterGlo (AID 1915); assay type: functional, organism-based;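 further: potency for reduction of bacterial viability or growth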
[8] = target: T3, Leucine aminopeptidase (Plasmodium falciparum 3D7, UniProt Q8IL11); assay: P. falciparum M17LAP inhibitors, primary screen, biochemical, fluorogenic H-Leu-NHMec substrate, 1536-well (AID 1619); assay type: functional
T3 sequence (Q8IL11 whole entry): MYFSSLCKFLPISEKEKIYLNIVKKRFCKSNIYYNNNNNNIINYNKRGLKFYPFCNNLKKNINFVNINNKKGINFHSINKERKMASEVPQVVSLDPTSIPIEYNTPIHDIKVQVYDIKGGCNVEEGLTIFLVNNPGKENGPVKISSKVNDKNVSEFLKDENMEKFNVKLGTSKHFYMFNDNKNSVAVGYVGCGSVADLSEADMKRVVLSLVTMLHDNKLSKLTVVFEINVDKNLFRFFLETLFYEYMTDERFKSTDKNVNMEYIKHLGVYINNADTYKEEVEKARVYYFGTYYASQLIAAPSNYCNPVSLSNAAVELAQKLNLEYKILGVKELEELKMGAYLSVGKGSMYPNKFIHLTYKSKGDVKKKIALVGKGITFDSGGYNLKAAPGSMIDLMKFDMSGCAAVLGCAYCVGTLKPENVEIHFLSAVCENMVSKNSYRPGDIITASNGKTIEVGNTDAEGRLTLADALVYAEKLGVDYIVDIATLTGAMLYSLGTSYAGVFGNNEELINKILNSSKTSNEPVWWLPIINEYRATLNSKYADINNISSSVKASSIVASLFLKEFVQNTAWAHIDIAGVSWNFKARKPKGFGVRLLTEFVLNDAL

[9] = inhibitors of Bluetongue virus cytopathic effect, confirmation, arbovirus, BSR cells (AID 1250); assay type: functional;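 further: protection from viral cytopathic effect measured as cell viability by ATP luminescence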
[10] = target: T4, Short transient receptor potential channel 4 (Mus musculus, UniProt Q9QUQ5); assay: mouse TRPC4 channel inhibitors, dose response, cell-based, HEK293 TRPC4/mu-opioid, Fluo-4 calcium (AID 434942); assay type: functional;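 further: potency of inhibitors blocking the TRPC4 calcium response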
T4 sequence (Q9QUQ5 whole entry): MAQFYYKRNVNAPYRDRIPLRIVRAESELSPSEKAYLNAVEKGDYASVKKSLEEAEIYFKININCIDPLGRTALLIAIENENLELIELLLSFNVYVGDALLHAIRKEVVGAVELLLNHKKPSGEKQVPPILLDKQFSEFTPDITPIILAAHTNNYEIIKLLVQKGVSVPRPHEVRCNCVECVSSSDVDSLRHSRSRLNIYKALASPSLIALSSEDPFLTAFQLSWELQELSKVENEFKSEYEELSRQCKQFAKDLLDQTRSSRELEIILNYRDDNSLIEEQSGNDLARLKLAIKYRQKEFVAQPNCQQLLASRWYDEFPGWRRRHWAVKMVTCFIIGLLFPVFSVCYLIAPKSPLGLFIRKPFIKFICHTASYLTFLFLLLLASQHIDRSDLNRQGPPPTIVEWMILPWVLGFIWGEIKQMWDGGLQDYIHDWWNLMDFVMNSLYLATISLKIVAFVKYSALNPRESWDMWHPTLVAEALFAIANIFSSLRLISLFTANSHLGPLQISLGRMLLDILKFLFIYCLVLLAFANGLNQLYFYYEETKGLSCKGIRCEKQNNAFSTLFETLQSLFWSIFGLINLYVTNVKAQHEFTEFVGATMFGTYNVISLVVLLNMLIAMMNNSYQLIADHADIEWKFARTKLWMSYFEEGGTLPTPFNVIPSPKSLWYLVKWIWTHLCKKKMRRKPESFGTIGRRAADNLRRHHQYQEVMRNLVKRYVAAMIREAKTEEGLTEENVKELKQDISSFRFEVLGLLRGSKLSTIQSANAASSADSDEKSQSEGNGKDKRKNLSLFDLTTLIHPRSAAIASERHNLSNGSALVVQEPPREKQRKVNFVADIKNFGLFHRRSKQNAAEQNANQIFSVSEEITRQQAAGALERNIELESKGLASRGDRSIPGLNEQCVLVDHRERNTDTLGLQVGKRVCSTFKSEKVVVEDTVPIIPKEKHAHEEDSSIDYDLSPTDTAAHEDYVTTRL

[11] = target: T5, Bcl-2-like protein 10 (Homo sapiens, UniProt Q9HD36); assay: Biochemical TR3 FP assay of Bcl-B inhibitor potency, EC50 (AID 1243); assay type: functional
T5 sequence (Q9HD36 whole entry): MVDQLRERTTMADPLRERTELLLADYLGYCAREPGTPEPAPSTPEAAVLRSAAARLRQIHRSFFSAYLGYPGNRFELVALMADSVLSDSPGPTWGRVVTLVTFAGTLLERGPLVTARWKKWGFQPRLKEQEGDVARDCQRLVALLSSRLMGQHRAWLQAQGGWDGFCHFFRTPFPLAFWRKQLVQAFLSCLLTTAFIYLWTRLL

[12] = target: T6, Neuropeptides B/W receptor type 1 (Homo sapiens, UniProt P48145); assay: Fluorescence-based dose response cell-based high throughput screening assay to identify antagonists of the G-protein coupled receptor 7 (GPR7). [Related pubchem assays: 1952 (Screening assay (GPR7 antagonists).), 1880 (Summary AID.)]; assay type: functional
T6 sequence (P48145 whole entry): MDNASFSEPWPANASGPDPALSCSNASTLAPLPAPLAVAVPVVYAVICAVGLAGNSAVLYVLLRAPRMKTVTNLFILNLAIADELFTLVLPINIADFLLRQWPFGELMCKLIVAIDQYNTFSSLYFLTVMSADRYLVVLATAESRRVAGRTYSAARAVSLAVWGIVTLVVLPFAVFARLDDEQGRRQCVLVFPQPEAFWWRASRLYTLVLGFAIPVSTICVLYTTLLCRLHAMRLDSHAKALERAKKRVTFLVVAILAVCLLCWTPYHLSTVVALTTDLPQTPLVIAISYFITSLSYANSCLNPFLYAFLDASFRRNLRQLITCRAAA

[13] = target: Melanin-concentrating hormone receptor 1 (Homo sapiens, UniProt Q99705); assay: Fluorescence-based counterscreen for antagonists of the G-protein coupled receptor 7 (GPR7): cell-based high throughput dose response assay to identify antagonists of the melanin-concentrating hormone receptor 1 (MCHR1).; assay type: functional
Chain of Melanin-concentrating hormone receptor 1 (Q99705 whole entry): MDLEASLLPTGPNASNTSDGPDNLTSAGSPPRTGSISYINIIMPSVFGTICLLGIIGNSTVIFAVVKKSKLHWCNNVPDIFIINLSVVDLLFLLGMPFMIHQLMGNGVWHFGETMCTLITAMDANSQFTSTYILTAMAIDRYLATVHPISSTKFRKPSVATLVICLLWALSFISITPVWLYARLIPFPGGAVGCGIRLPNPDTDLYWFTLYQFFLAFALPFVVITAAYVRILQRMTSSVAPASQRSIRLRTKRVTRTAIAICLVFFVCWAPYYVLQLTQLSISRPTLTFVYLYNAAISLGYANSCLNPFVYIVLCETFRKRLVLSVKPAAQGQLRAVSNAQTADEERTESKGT

[14] = target: Cytochrome P450 2C9 (Homo sapiens, UniProt P11712); settings: Potency
Chain of Cytochrome P450 2C9 (P11712 whole entry): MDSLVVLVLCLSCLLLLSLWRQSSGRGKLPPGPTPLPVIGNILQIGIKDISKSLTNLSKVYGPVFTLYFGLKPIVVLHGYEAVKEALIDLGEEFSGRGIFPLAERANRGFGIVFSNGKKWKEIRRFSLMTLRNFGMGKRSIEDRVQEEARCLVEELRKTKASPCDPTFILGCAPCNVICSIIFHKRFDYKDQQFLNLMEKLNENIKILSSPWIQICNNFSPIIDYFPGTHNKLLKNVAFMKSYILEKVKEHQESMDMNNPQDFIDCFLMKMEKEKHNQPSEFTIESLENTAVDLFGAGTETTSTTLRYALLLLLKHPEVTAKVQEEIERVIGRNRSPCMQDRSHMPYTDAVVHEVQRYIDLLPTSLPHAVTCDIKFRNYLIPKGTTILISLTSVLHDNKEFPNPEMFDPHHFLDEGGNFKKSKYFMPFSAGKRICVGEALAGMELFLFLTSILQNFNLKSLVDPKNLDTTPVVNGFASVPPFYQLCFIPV

[15] = tested on: HEK293; assay: Fluorescence-based counterscreen for potentiators or agonists of NPY-Y2: cell-based high-throughput dose response assay to identify inhibitors of cyclic nucleotide gated ion channel (CNGC) activity. In this assay, the parental HEK293 cell line transfected with a cyclic-nucleotide gated ion channel (CNGC)-based cAMP sensor is used to measure inhibition of isoproterenol-induced CNGC activity by test compound.; assay type: functional; settings: Homo sapiens;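 further: stimulus is 1 µM isoproterenol at EC100 plus PDE inhibitor Ro 20-1724 at 25 µM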
[16] = target: Neuropeptide Y receptor type 2 (Homo sapiens, UniProt P49146); assay: Fluorescence-based cell-based high-throughput dose response assay for agonists of NPY-Y2. [Related pubchem assays: 1703 (Screening assay (CNGC inhibitors).), 1359 (Screening assay (NPY-Y2 potentiators or agonists).), 1304 (Screening assay (NPY-Y1 potentiators or agonists).), 1710 (Screening assay (NPY-Y2 agonists).), 1791 (Summary AID.)]; assay type: functional
Chain of Neuropeptide Y receptor type 2 (P49146 whole entry): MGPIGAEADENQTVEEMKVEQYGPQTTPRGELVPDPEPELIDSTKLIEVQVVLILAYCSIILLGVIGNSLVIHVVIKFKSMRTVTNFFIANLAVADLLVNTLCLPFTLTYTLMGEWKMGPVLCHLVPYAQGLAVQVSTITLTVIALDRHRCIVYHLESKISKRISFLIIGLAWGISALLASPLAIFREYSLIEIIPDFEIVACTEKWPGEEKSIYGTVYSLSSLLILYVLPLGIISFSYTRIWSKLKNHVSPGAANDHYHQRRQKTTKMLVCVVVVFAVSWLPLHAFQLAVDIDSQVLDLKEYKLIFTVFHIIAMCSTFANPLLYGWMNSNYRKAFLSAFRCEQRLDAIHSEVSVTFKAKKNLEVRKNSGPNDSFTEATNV

[17] = target: Neuropeptide Y receptor type 1 (Homo sapiens, UniProt P25929); assay: Fluorescence-based counterscreen for agonists of NPY-Y2: cell-based high-throughput dose response assay for agonists of NPY-Y1.; assay type: functional
Chain of Neuropeptide Y receptor type 1 (P25929 whole entry): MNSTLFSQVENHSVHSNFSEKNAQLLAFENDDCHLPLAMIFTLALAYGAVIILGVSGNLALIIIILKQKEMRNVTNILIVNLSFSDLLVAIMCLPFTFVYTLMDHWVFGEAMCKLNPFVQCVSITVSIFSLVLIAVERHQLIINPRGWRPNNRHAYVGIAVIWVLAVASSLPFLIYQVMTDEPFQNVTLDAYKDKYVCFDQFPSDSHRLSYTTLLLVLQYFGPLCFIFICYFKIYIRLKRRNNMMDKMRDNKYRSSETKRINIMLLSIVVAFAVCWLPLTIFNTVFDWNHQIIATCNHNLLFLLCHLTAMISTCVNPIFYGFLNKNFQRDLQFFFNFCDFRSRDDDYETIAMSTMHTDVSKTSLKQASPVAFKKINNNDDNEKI

In the case of `CCOC(=O)c1sc2nc3c(SCC(=O)O)cc(C(=O)c4cc(F)ccc4O)cn3c(=O)c2c1C`, the IC50 [1] is reported as 21.9 µM (active), the EC50 [2] is reported as 1.86 µM (active) and the IC50 [3] is reported as 5.11 µM (active). For the same molecule, the EC50 [4] was 15.4 µM (active), the IC50 [5] was > 67 µM (not active) and the IC50 [6] was 2.63 µM (active). The EC50 [7] was 141 µM (active).

In the case of `Cc1ccc(-c2csc(NC(=O)C3CC=CCC3C(=O)O)c2C(=O)OC(C)C)cc1` (configuration not stated), the IC50 [8] is reported as 9.13 µM (active), the IC50 [9] is reported as 39.4 µM (active) and the EC50 [10] is reported as 5.96 µM (active).

In the case of `CN1CCN(CN2C(=O)/C(=N\NC(=O)CSc3nc4ccccc4s3)c3ccccc32)CC1`, the EC50 [11] is reported as 12.9 µM (active).

For `CCCCNc1nc2ccccc2n1CC(=O)Nc1c(C)cccc1CC`, the IC50 [12] was > 43.8 µM (not active) and the IC50 [13] was 31.7 µM (not active).

With `Cc1ccccc1OC1C=CC(C#Cc2ccc(Br)cc2)OC1CO` (configuration not stated) the AC50 [14] was 3.98 µM (inconclusive).

With `Fc1ccc2c(c1)/C(=N/Nc1ccccn1)CCS2` the EC50 [15] was 7.7 µM (active), the EC50 [16] was 11.3 µM (not active) and the EC50 [17] was 12.4 µM (not active).
